Measured values from article PMC3671673, “In Vitro Morphological Assessment of Apoptosis Induced by Antiproliferative Constituents from the Rhizomes of Curcuma zedoaria” (Evidence-based Complementary and Alternative Medicine : eCAM, 2013).
Values after ≈ are worked out from the molar mass of the structure shown. Like-named read-outs stand apart in the source and are kept apart here.

Key:
[1] = tested on: cervical carcinoma cell line (Ca Ski); assay: cells; assay type: cell-based; conditions: Homo sapiens, 72 h, neutral red, mean ± SD of three replicates, read-out: IC50 (μg/mL) Ca Ski
Experimental: (§1) The human cancer cells KB, Ca Ski, MCF-7, HCT-116, A549, and noncancer human cell lines (MRC-5) were purchased from the American Tissue Culture Collection (ATCC, USA). The supplemented RPMI 1640 media and eagle minimum essential medium (EMEM) were purchased from Sigma-Aldrich, USA. The supplements or antibiotics such as foetal bovine serum (FBS), penicillin/streptomycin (P/S) (100 μg/mL), amphotericin B (50 μg/mL), and accutase were purchased from PAA Laboratories, Austria. Sodium pyruvate (11 mg/mL) purchased from Sigma-Aldrich, USA. The cells were cultured in a SHEL LAB water-jacketed CO2 incubator with […] tissue culture flasks (Nunc, Denmark), which was observed routinely under inverted microscope (Leica DMI3000 B, Germany) for any contamination and seeded into 96-well flat bottom microtiter plate (Nunc, Denmark). The extract or pure compounds was dissolved in dimethyl sulfoxide (DMSO, Molecular Biology Grade, >99.9%) from Sigma-Aldrich, USA. Microtiter plate incubator shaker (LT Biomax 500) was used and absorbance was measured at 540 nm using an ELISA microplate reader (EMax microplate reader of Molecular Devices, USA). MCF-7 and Ca Ski were cultured in RPMI 1640 media supplemented with 10% v/v FBS, P/S, and amphotericin B and MRC-5 in EMEM media with 10% v/v FBS, P/S, amphotericin B, and sodium pyruvate. The cells were cultured in tissue culture flask in 5% CO2 incubator kept at 37°C in a humidified atmosphere and observed routinely under inverted microscope from any contaminations. Each fresh medium was replaced every 2 or 3 days until cell confluence was achieved and the cells were detached by using accutase.
(§2) The in vitro cytotoxicity activity was performed using the neutral red cytotoxicity assay based on the initial protocol as described earlier with some modifications. Briefly, cells were detached from the tissue culture flask with 1.0 mL solution of accutase and PBS solution. The cell pellet was obtained by centrifugation at 1,000 rpm for 5 minutes. The density of the viable cells was counted by 0.4% of trypan blue exclusion in a haemocytometer. Cells were then plated in 96-well microtiter plate (Nunc), at a concentration of 1 × 10^4 cells/well and incubated in a CO2 incubator at 37°C to allow the cells to adhere. After 24 h, the cells were treated with six different concentrations, that is, 1, 10, 25, 50, 75, and 100 μg/mL of each tested agent in three replicates. The plates were incubated for 72 h at 37°C in a 5% CO2 incubator. The untreated cells were regarded as a negative control, whilst cells incubated only with DMSO (0.5%, v/v) were used as a vehicle control. No effect due to the DMSO was observed. Doxorubicin was used as the positive control. After 72 h, the old medium was substituted with fresh medium containing 50 μg/mL neutral red. The 96-well plates were placed into incubator for 3 h. This is to allow the uptake of the vital dye into the lysosomes of viable and undamaged cells. Then, the media was discarded and cells were washed with 200 μL of neutral red washing solution. The dye was eluted from the cells by adding neutral red resorb solution (200 μL). The plate was further incubated for 30 min with rapid agitation on a microtiter plate shaker. The optical density (OD) of the eluted dye was read at 540 nm using a microplate reader. The experiments were conducted in triplicates. The percentage of inhibition of each of the test samples was calculated according to the following formula using the OD values obtained: percentage of inhibition (%) = (OD control − OD sample)/OD control × 100%. The average of three replicates was then obtained. Cytotoxicity of each test agent is expressed as IC50 value. The IC50 value is the concentration of test agents that cause 50% inhibition or cell death, averaged from the three experiments. The IC50 for each extract was extrapolated from the graphs of the percentage inhibition versus concentration of test agents.

[2] = tested on: hormone-dependent breast cancer cell line (MCF-7); assay: cells; assay type: cell-based; conditions: Homo sapiens, MCF7, 72 h, neutral red, mean ± SD of three replicates, read-out: IC50 (μg/mL) MCF-7
Experimental: as §1, §2

[3] = tested on: colon carcinoma cell line (HCT-116); assay: Neutral red cytotoxicity assay, HCT-116; assay type: cell-based; conditions: Homo sapiens, 72 h, mean ± SD of three replicates, read-out: IC50 (μg/mL) HCT-116
Experimental: as §1
as §2, with “The percentage of inhibition of each of the test samples was calculated according to the following formula using the OD values obtained: percentage of inhibition (%) = (OD control − OD sample)/OD control × 100%. The average of three replicates was then obtained.” left out, “The IC50 value is the concentration of test agents that cause 50% inhibition or cell death, averaged from the three experiments. The IC50 for each extract was extrapolated from the graphs of the percentage inhibition versus concentration of test agents.” left out

[4] = tested on: noncancer human lung fibroblast cell line (MRC-5); assay: Neutral red cytotoxicity assay, MRC-5; assay type: cell-based; conditions: 72 h, mean ± SD of three replicates, read-out: IC50 (μg/mL) MRC-5
Experimental: as §1
as §2, with “The percentage of inhibition of each of the test samples was calculated according to the following formula using the OD values obtained: percentage of inhibition (%) = (OD control − OD sample)/OD control × 100%. The average of three replicates was then obtained.” left out, “The IC50 value is the concentration of test agents that cause 50% inhibition or cell death, averaged from the three experiments. The IC50 for each extract was extrapolated from the graphs of the percentage inhibition versus concentration of test agents.” left out

[5] = tested on: cervical carcinoma cell line (Ca Ski); set-up: method as in PMID 19471192; conditions: reported previously, ref [21]; cited from earlier work
[6] = tested on: hormone-dependent breast cancer cell line (MCF-7); set-up: method as in PMID 19471192; conditions: MCF-7, reported previously, ref [21]; cited from earlier work
[7] = tested on: colon carcinoma cell line (HCT-116); set-up: method as in PMID 19471192; conditions: HCT-116, reported previously, ref [21]; cited from earlier work
[8] = tested on: nasopharyngeal carcinoma cell line (KB); assay: Neutral red cytotoxicity assay, KB; assay type: cell-based, human; conditions: extracts, 72 h, mean ± SD of three replicates
Experimental: (§3) The human cancer cells KB, Ca Ski, MCF-7, HCT-116, A549, and noncancer human cell lines (MRC-5) were purchased from the American Tissue Culture Collection (ATCC, USA). The supplemented RPMI 1640 media and eagle minimum essential medium (EMEM) were purchased from Sigma-Aldrich, USA. The supplements or antibiotics such as foetal bovine serum (FBS), penicillin/streptomycin (P/S) (100 μg/mL), amphotericin B (50 μg/mL), and accutase were purchased from PAA Laboratories, Austria. Sodium pyruvate (11 mg/mL) purchased from Sigma-Aldrich, USA. […] Microtiter plate incubator shaker (LT Biomax 500) was used and absorbance was measured at 540 nm using an ELISA microplate reader (EMax microplate reader of Molecular Devices, USA). […]
(§4) The in vitro cytotoxicity activity was performed using the neutral red cytotoxicity assay based on the initial protocol as described earlier with some modifications. […] The density of the viable cells was counted by 0.4% of trypan blue exclusion in a haemocytometer. […] The optical density (OD) of the eluted dye was read at 540 nm using a microplate reader. […] Cytotoxicity of each test agent is expressed as IC50 value. […]

[9] = tested on: lung carcinoma cell line (A549); assay: Neutral red cytotoxicity assay, A549; assay type: cell-based; conditions: Homo sapiens, extracts, 72 h, mean ± SD of three replicates, read-out: IC50 (μg/mL) A549
Experimental: as §3, §4

SMILES: C/C1=C\CC[C@@]2(C)O[C@@H]2C(=O)c2c(C)coc2C1 [Zederone (5), zederone]
- IC50 ([1]; isolated compounds): > 100 µg/mL
- IC50 ([2]; isolated compounds): > 100 µg/mL
- IC50 ([3]; isolated compounds): > 100 µg/mL
- IC50 ([4]; MRC5, isolated compounds): > 100 µg/mL

SMILES: C/C1=C\CC[C@H](C)C(=O)C[C@H](C(C)C)C(=O)C1 [Neocurdione (2), neocurdione]
- IC50 ([1]; isolated compounds): 46.2 ± 1.1 µg/mL (≈ 195 µM)
- IC50 ([2]; isolated compounds): 53.5 ± 1.1 µg/mL (≈ 226 µM)
- IC50 ([3]; isolated compounds): 64 ± 1.3 µg/mL (≈ 271 µM)
- IC50 ([4]; MRC5, isolated compounds): 59 ± 0.4 µg/mL (≈ 250 µM)

SMILES: CC[C@H](CC[C@@H](C)[C@H]1CC[C@H]2[C@@H]3CC=C4C[C@@H](O)CC[C@]4(C)[C@H]3CC[C@]12C)C(C)C [β-sitosterol (8), β-sitosterol]
- cytotoxicity (in words) [5]: low cytotoxicity
- cytotoxicity (in words) [6]: low cytotoxicity
- cytotoxicity (in words) [7]: low cytotoxicity

SMILES: COc1cccc2c1C(=O)c1c(O)c3c(c(O)c1C2=O)C[C@@](O)(C(=O)CO)C[C@@H]3O[C@H]1C[C@H](N)[C@H](O)[C@H](C)O1 [Doxorubicin, reference compound]
- IC50 (μg/mL) KB [8]: 0.27 ± 0.01 µg/mL (≈ 0.497 µM)
- IC50 ([1]; extracts): 0.18 ± 0.06 µg/mL (≈ 0.331 µM)
- IC50 ([2]; extracts): 0.05 ± 0.01 µg/mL (≈ 0.092 µM)
- IC50 ([3]; extracts): 0.24 ± 0.04 µg/mL (≈ 0.442 µM)
- IC50 [9]: 0.58 ± 0.01 µg/mL (≈ 1.07 µM)
- IC50 ([4]; MRC5, extracts): 0.4 ± 0.03 µg/mL (≈ 0.736 µM)
